In US4486415A, “Cyclic hexapeptide somatostatin analogs” (Merck & Co., Inc., priority 1983, dated 1984):
Square brackets hold non-standard residues; d marks the D form. Peptide text beside a SMILES is read from it. NMeF = CN[C@@H](Cc1ccccc1)C(=O)O; NMeK = CN[C@@H](CCCCN)C(=O)O; dNMeK = CN[C@H](CCCCN)C(=O)O

Assays:
[1] = test system: growth hormone; assay: in vitro test for the inhibition of growth hormone release, cultured rat pituitary cells; assay type: cell-based; conditions: multiples or fractions of the effect of somatostatin (=1), fiducial limits in parentheses, 4 hours incubation
Procedure: The instant cyclic hexapeptide analogs of somatostatin are tested and compared with the effects of somatostatin in an in vitro test for the inhibition of growth hormone. The test is described as follows:
"Rat pituitaries were isolated according to the procedures of Vale and Grant "In vitro Pituitary Hormone Secretion Assay for Hypophysiotropic Substances" in Methods in Enzymology, Vol. XXXVII, eds. O'Malley, B.W. and Hardman, J.G. (Academic Press, Inc., New York) pp. 5-93 (1975).
After 4 days in culture, the cells were washed and incubated for 4 hours in Dulbecco-modified Eagle's medium in the presence or absence of graded doses of each analog or somatostatin. The medium was then collected for subsequent growth hormone determinatin by a double antibody radioimmunoassay for rat growth hormone."

[2] = test system: portal vein glucagon; assay: decrease of portal vein glucagon in anesthetized rats; assay type: in vivo, rat; conditions: multiples or fractions of the effect of somatostatin (=1), fiducial limits in parentheses, external jugular vein, portal blood after 5 minutes
Procedure: (§1) Analogs of somatostatin were compared to somatostatin in their ability to decrease the levels of portal vein glucagon and insulin in anesthetized rates. Male Sprague-Dawley rats (Charles River CD) weighing 160-200 g were anesthetized with urethane (150 mg/100 g of body weight; Aldrich). Saline or peptides were administered via the external jugular vein. After 5 minutes, the portal vein was exposed, and blood was collected via syringe containing 3 mg of EDTA and placed in chilled tubes containing 100 μl of Trasylol (FBA Pharmaceuticals) for subsequent hormone analysis. Plasma levels of glucagon were determined by the method of Faloona and Unger, Methods of Hormone Radioimmunoassay, Jaffe and Behrman (Eds), Academic Press, New York, Vol. II, pp. 257-527 (1976), utilizing glucagon antisera 30K obtained from R. Unger (Dallas, TX). Plasma levels of insulin were determined by a modification of the procedure of Herbert et al., J. Clin. Endocrinol. Metab., 25, 1375-1384 (1965).

[3] = test system: portal vein insulin; assay: decrease of portal vein insulin in anesthetized rats; assay type: in vivo, rat; conditions: multiples or fractions of the effect of somatostatin (=1), fiducial limits in parentheses, external jugular vein, portal blood after 5 minutes
Procedure: as §1

[4] = test system: pentagastrin evoked gastric secretion; assay: inhibition of pentagastrin evoked gastric secretion in the chronic fistula dog; assay type: in vivo; conditions: Dose 0.8 μg/ml./min., infusion 0-60 min., relative to placebo trial; for Gastric Secretion & Inhibition, Acid Concentration 0-30 / Gastric Secretion & Inhibition, Vol. 0-30: 0-30 min; for Gastric Secretion & Inhibition, Acid Concentration 30-60 / Gastric Secretion & Inhibition, Vol. 30-60: 30-60 min; for Gastric Secretion & Inhibition, Acid Concentration 60-90 / Gastric Secretion & Inhibition, Vol. 60-90: 60-90 min; for Gastric Secretion & Inhibition, Acid Concentration 90-120 / Gastric Secretion & Inhibition, Vol. 90-120: 90-120 min
Procedure: The effects of the instant cyclichexapeptide analogs of somatostatin are determined by the following procedure.
Compounds were tested for their ability to inhibit pentagastrin evoked gastric secretion in the chronic fistula dog. Female beagle dogs with a chronic gastric fistula were given pentagastrin (2.5 μg./kg./hour, i.v. from -60 to 120 min.) and gastric outputs were collected via the fistula cannula. Samples were analyzed at 30 minute intervals for volume (Ml.) and titratable acid (mEq/L) (Titration to pH 7 with 0.01N NaOH); total acid output (mEq) was calculated as the production of output volume and acid concentration. Test compounds were infused at a constant rate from 0 to 60 minutes. Data have been expressed as percent change of total acid output relative to a placebo trial in the same animals.

Compound	Growth Hormone Release Inhibition [1]	Glucagon Inhibition [2]	Insulin Inhibition [3]	Gastric Secretion & Inhibition, Acid Concentration 0-30 [4] [%]	Gastric Secretion & Inhibition, Vol. 0-30 [4] [%]	Gastric Secretion & Inhibition, Acid Concentration 30-60 [4] [%]	Gastric Secretion & Inhibition, Vol. 30-60 [4] [%]	Gastric Secretion & Inhibition, Acid Concentration 60-90 [4] [%]	Gastric Secretion & Inhibition, Vol. 60-90 [4] [%]	Gastric Secretion & Inhibition, Acid Concentration 90-120 [4] [%]	Gastric Secretion & Inhibition, Vol. 90-120 [4] [%]
C[C@@H](O)[C@@H]1NC(=O)[C@H](CCCCN)NC(=O)[C@@H](Cc2c[nH]c3ccccc23)NC(=O)[C@H](Cc2ccccc2)NC(=O)[C@@H]2CCCN2C(=O)[C@H](Cc2ccccc2)N(C)C1=O [Cyclo(D-Trp-Lys-Thr-N-Me-Phe-Pro-Phe)] (cyclo(F[dW]KT[NMeF]P))	0.53(0.34,0.82)	2.0	1.1(0.6,1.7)								
C[C@@H](O)[C@@H]1NC(=O)[C@H](CCCCN)N(C)C(=O)[C@@H](Cc2c[nH]c3ccccc23)NC(=O)[C@H](Cc2ccccc2)NC(=O)[C@@H]2CCCN2C(=O)[C@H](Cc2ccccc2)NC1=O [Cyclo(D-Trp-N-Me-Lys-Thr-Phe-Pro-Phe)] (cyclo(FPF[dW][NMeK]T))	1.6(0.7,3.4)	Active	0.5(0.1,1.8)	9	78	49	82	43	61	32	60
C[C@@H](O)[C@@H]1NC(=O)[C@@H](CCCCN)N(C)C(=O)[C@H](Cc2c[nH]c3ccccc23)NC(=O)[C@H](Cc2ccccc2)NC(=O)[C@@H]2CCCN2C(=O)[C@H](Cc2ccccc2)NC1=O [Cyclo(Pro--Phe--L-Trp--D-N--Me--Lys--Thr--Phe)] (cyclo(FPFW[dNMeK]T))	0.05(0.04,0.07)		0.07								
C[C@@H](O)[C@@H]1NC(=O)[C@@H](CCCCN)N(C)C(=O)[C@@H](Cc2c[nH]c3ccccc23)NC(=O)[C@H](Cc2ccccc2)NC(=O)[C@@H]2CCCN2C(=O)[C@H](Cc2ccccc2)NC1=O [Cyclo-(Pro-Phe-D-Trp-N-Me-D-Lys-Thr-Phe)] (cyclo(FPF[dW][dNMeK]T))	1.5(1.2,1.9)	0.4	0.4(0.01,1.9)	44	82	51	89	6	49	0	60
C[C@@H](O)[C@@H]1NC(=O)[C@H](CCCCN)N(C)C(=O)[C@H](Cc2c[nH]c3ccccc23)NC(=O)[C@H](Cc2ccccc2)NC(=O)[C@@H]2CCCN2C(=O)[C@H](Cc2ccccc2)NC1=O [Cyclo-(Pro-Phe-L-Trp-N-Me-Lys-Thr-Phe)] (cyclo(FPFW[NMeK]T))	0.1(0.09,0.2)	0.2	0.3(0.1,0.7)								
